Test results published in patent publication US5284850A, “Terpene amino alcohols and medicinal uses thereof” (Kuraray Co., Ltd., priority 1985, dated 1994).

System: sensitized bronchial muscle
Experiment: Antiallergic action: inhibition of egg albumin-induced contraction of sensitized guinea pig bronchial muscle
Format: tissue-based, guinea pigs of Hartley strain
Conditions: Cavia porcellus; for inhibition at 100 µM: 10^-4 M; for inhibition at 10 µM: 10^-5 M; for inhibition at 1 µM: 10^-6 M; for inhibition at 0.1 µM: 10^-7 M; for inhibition at 0.01 µM: 10^-8 M
Description: Male guinea pigs of Hartley strain (body weight: about 250 g) were intraperitoneally or intramuscularly dosed with egg albumin (dose 100 mg/kg) and the same procedure was repeated after 3 days. After 3 to 4 weeks, the guinea pi-as were bled to death and the sensitized bronchial muscle was excised and cut into 1.5 mm thick rings. Three rings were joined to prepare a specimen. The specimen was suspended in a tissue bath and a load of 1 g was applied. […] After stabilization of the specimen (after about 1 hour), histamine hydrochloride was added to the bath at a final concentration of 10^-5 M. The contraction curve was recorded. After the contraction had been stabilized, the specimen was washed with 3 portions of Ringer's solution at 10-minute intervals to stabilize the contraction (about 1 hour was required). Then, the test compound was added to the tissue bath and, after an interval of 10 minutes, 5 mg/ml of egg albumin was added. The contraction amplitude of the specimen was measured and the percent inhibition was calculated according to the following formula. [formula] A: Contraction amplitude of control group when egg albumin is added A': Contraction amplitude of dosage group when egg albumin is added
H: Contraction amplitude of control group when histamine hydrochloride is added
H': Contraction amplitude of dosage group when histamine hydrochloride is added

In the case of `CCCCN(CCCC)CC(O)C(C)(O)CCC=C(C)C` (centres unmarked) [(1)], the inhibition at 100 µM is reported as 43.6%.

`CC(C)=CCCC(C)(O)C(O)CN(C)c1ccccc1` (centres unmarked) [(2)] showed an inhibition at 100 µM of 58.7%, an inhibition at 10 µM of 30.1% and an inhibition at 1 µM of 19.9%.

Compound `CC(C)=CCCC(C)(O)C(O)CN1CCCC1` (centres unmarked) [(3)] has an inhibition at 10 µM of 36.3%, an inhibition at 1 µM of 60% and an inhibition at 0.1 µM of 34.2%. For the same compound, the inhibition at 0.01 µM was 30.8%.

Work on `CNCC(O)C(C)(O)CCCC(C)CCCC(C)CCCC(C)C` (centres unmarked) [(31)] yielded an inhibition at 10 µM of 10.9%.

In the case of `CCN(CC)CC(O)C(C)(O)CCCC(C)CCCC(C)CCCC(C)C` (centres unmarked) [(33)], the inhibition at 10 µM is reported as 47.9% and the inhibition at 1 µM is reported as 32.6%.

`CC(C)=CCCC(C)(O)C(O)CN1CCCCC1` (centres unmarked) [Compound (4)] was tested, and the inhibition at 10 µM was 42% and the inhibition at 1 µM was 2.6%.

`CC(C)=CCCC(C)(O)C(O)CN1CCOCC1` (centres unmarked) [Compound (5)] was tested, and the inhibition at 10 µM was 28.9%, the inhibition at 1 µM was 71.5% and the inhibition at 0.1 µM was 23%.

In the case of `CC(C)=CCCC(C)(O)C(O)CN(C)CCO` (centres unmarked) [Compound (6)], the inhibition at 10 µM is reported as 48.2% and the inhibition at 1 µM is reported as 28.6%.

Compound `CC(C)CCCC(C)(O)C(O)CN` (centres unmarked) [Compound (7)] has an inhibition at 10 µM of 54.3%, an inhibition at 1 µM of 48.1% and an inhibition at 0.1 µM of 58.7%.

In the case of `CNCC(O)C(C)(O)CCCC(C)C` (centres unmarked) [Compound (8)], the inhibition at 100 µM is reported as 52.6% and the inhibition at 10 µM is reported as 37.8%.

`CCCCN(CCCC)CC(O)C(C)(O)CCCC(C)C` (centres unmarked) [Compound (9)] showed an inhibition at 10 µM of 27.9%, an inhibition at 1 µM of 67.2% and an inhibition at 0.1 µM of 56%. The inhibition at 0.01 µM was 16%.

Compound `CC(C)CCCC(C)(O)C(O)CNCCO` (centres unmarked) [Compound (10)] has an inhibition at 10 µM of 81.2% and an inhibition at 1 µM of 23.8%.

In the case of `CC(C)CCCC(C)CCCC(C)(O)C(O)CN` (centres unmarked) [Compound (11), 1-amino-3,7,11-trimethyl-2,3-dodecanediol], the inhibition at 10 µM is reported as 40.7% and the inhibition at 1 µM is reported as 32.5%.

`CNCC(O)C(C)(O)CCCC(C)CCCC(C)C` (centres unmarked) [Compound (12), 1-methylamino-3,7,11-trimethyl-2,3-dodecanediol] showed an inhibition at 100 µM of 48.3% and an inhibition at 10 µM of 35.4%.

In the case of `CCCCN(CCCC)CC(O)C(C)(O)CCCC(C)CCCC(C)C` (centres unmarked) [Compound (13), 1-dibutylamino-3,7,11-trimethyl-2,3-dodecanediol], the inhibition at 100 µM is reported as 40.2%.

In the case of `CC(C)CCCC(C)CCCC(C)(O)C(O)CNCCO` (centres unmarked) [Compound (14)], the inhibition at 10 µM is reported as 48.7% and the inhibition at 1 µM is reported as 51.4%.

Work on `CC(C)CCCC(C)CCCC(C)(O)C(O)CN(C)C` (centres unmarked) [Compound (16), 1-(dimethylamino)-3,7,11-trimethyl-2,3-dodecanediol] yielded an inhibition at 10 µM of 48%, an inhibition at 1 µM of 35% and an inhibition at 0.1 µM of 15%.

Compound `CC(C)CCCC(C)CCCC(C)(O)C(O)CN1CCOCC1` (stereo not drawn) [Compound (17), 3,7,11-trimethyl-l-morpholino-2,3-dodecanediol] has an inhibition at 10 µM of 45%, an inhibition at 1 µM of 68% and an inhibition at 0.1 µM of 29%.

In the case of `COc1ccc(CN2CCN(CC(O)C(C)(O)CCCC(C)CCCC(C)C)CC2)c(OC)c1OC` (stereo not drawn) [Compound (18), 3,7,11-trimethyl-l-[4-[(2,3,4-trimethoxyphenyl)methyl]piperazin-1-yl]-2,3-dodecanediol], the inhibition at 10 µM is reported as 62%, the inhibition at 1 µM is reported as 79% and the inhibition at 0.1 µM is reported as 45%.

For `CC(C)CCCC(C)CCCC(C)(O)C(O)CNc1ccc(O)cc1` (centres unmarked) [Compound (19)], the inhibition at 10 µM was 43%, the inhibition at 1 µM was 54% and the inhibition at 0.1 µM was 33%.

In the case of `CC(C)CCCC(C)CCCC(C)(O)C(O)CNc1ccncc1` (centres unmarked) [Compound (20)], the inhibition at 1 µM is reported as 71%, the inhibition at 0.1 µM is reported as 40% and the inhibition at 0.01 µM is reported as 15%.

With `CC(C)CCCC(C)CCCC(C)(O)C(O)Cn1ccnc1` (centres unmarked) [Compound (21), 1-(1H-imidazol-1-yl)-3,7,11-trimethyl-2,3-dodecanediol] the inhibition at 0.1 µM was 66.9%.

`CC(C)CCCC(C)CCCC(C)(O)C(O)CNCCCN1CCOCC1` (centres unmarked) [Compound (22)] gave an inhibition at 0.1 µM of 46.9%.

`CC(C)CCCC(C)CCCC(C)(O)C(O)CNc1cccc2ncccc12` (centres unmarked) [Compound (23)] was tested, and the inhibition at 1 µM was 76%, the inhibition at 0.1 µM was 55% and the inhibition at 0.01 µM was 27%.
